Test results from US20250144230A1, “LINKERS FOR USE IN ANTIBODY DRUG CONJUGATES” (Orum Therapeutics, Inc., priority 2021, published 2025).
Each block holds one molecule with its values, some of them ahead of it.

Key:
[1] = system: MV-4-11 human acute myeloid leukemia cells; test: In vivo MV-4-11 subcutaneous myeloid leukemia tumor model; design: species or system Athymic Nude mice; details: 0.4 mg/kg IP once a day for 14 days (equivalent to conjugated payload dose)
Description: Subcutaneous tumor model—MV-4-11 human acute myeloid leukemia cells (1×10^7 cells in 0.1 mL) were subcutaneously inoculated into the right flank of female Athymic Nude mice. Mice were treated with each test article when the tumor size reached 100-150 mm^3. 10 mg/kg of CD33-D antibody-Compound (XL) conjugate (in 20 mM succinate, 8% sucrose, 0.01% Tween-20 pH 5.5) was delivered by intravenous administration (IV) once a week for 2 weeks. 0.4 mg/kg of Compound (XL) (in 5% NMP, 45% PEG300, 20 mM NaPi pH 6.5) and 10 mg/kg of ARV-825 (as described in Liu, et al. Chemistry & Biology 2015, volume 22, pages 755-763) in 1.5 mg/mL, 5% Kolliphor, HS15 WFI Buffer was treated by intraperitoneal administration (IP) once a day for 14 days. Tumor size and mouse body weight were measured twice per week. Subcutaneous tumor volume (mm^3) was calculated with the following formula: (a×b^2/2) where ‘b’ is the smallest diameter and ‘a’ is the largest diameter. The study endpoint is that individual mice were euthanized following respective tumor volume ≥1,000 mm^3 or day 60, whichever came first.

MV-4-11 cells = test: In vitro MV-4-11 antiproliferation assay (alamarBlue); assay type: cell-based, human; details: 4 days, test article alone
Description: MV-4-11 cells were exposed to varying concentrations of conjugates or antibodies for 4 days with/without 1 μM of the blocking antibody Gemtuzumab or Trastuzumab. Viability of the cells was determined by alamarBlue. The antiproliferative activity of the gemtuzumab conjugate of Compound (XL) and the unconjuaged BRD4 degrader small molecule Compound 40-3 are showin in FIG. 13. […] The antibodies alone were not active up to […].

BRD4 = target: T1, BRD4 (Homo sapiens, UniProt O60885); test: In vitro BRD4 protein degradation assay (Western blot); assay type: cell-based; details: 10 nM, MV4-11 cells, overnight
T1 construct: endogenous in cells; host or cells: MV4-11
Description: The ability of the claimed conjugates to degrade BRD4 was measured using an in vitro degradation assay. MV4-11 cells were incubated with test article overnight. Protein was loaded to 4-12% NuPAGE Bis-Tris gel. Western blot with rabbit anti-BRD4 Ab (Cell Signaling #13440) was performed at 1:1,000 dilution and re-blotting with β-actin HRP (Cell Signaling #5125) was performed at 1:1,000. The degradation activity of the gemtuzumab conjugate Compound (XL) and the unconjuaged BRD4 degrader small molecule Compound 40-3 are shown in FIG. 14.

CD79b [2] = target: T2, CD79b (Homo sapiens, UniProt P40259); test: Binding of conjugate and parent antibody to cancer cells (flow cytometry), CD79b / Ramos; details: 1 hour at 4° C.; conjugate at DARs 2.0, 3.2 and 4.6
T2 construct: endogenous in cells; host or cells: Ramos
T2 sequence (P40259 29-229): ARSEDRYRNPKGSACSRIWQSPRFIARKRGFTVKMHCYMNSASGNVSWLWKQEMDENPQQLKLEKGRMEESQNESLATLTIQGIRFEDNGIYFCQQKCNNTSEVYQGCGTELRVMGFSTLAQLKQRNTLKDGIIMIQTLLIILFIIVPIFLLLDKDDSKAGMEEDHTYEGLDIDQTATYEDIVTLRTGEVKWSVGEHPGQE
T2 sequence (P11912 33-226 partner): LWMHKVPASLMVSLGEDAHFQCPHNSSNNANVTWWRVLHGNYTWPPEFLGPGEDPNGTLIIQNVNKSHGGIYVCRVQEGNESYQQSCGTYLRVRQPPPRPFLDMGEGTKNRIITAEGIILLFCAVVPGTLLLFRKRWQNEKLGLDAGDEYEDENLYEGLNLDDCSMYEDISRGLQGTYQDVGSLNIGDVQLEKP

CD79b [3] = target: T3, CD79b (UniProt P40259 29-229, limits assumed); test: flow cytometry binding to Ramos cells (procedure of Example 10)
T3 construct: whole, on cells; Endogenous antigen on the cell line
T3 sequence (looked up): T2 sequence (P40259 29-229)

reduction in BRD4 protein band intensity (BRD4): > 90%
Molecule: Cn1cc(-c2cc(NC(=O)CCCCC(=O)NCCCCNc3cccc4c3C(=O)N(C3CCC(=O)NC3=O)C4=O)ccc2Oc2ccc(F)cc2F)c2cc[nH]c2c1=O (centres unmarked) [Compound 40-3, N′-[4-(2,4-difluorophenoxy)-3-{6-methyl-7-oxo-1H-pyrrolo[2,3-c]pyridin-4-yl}phenyl]-N-(4-{[2-(2,6-dioxopiperidin-3-yl)-1,3-dioxoisoindol-4-yl]amino}butyl)hexanediamide, reference compound]
effect on MV-4-11 tumor growth [1]: inactive
antiproliferative activity against MV-4-11 cells (in words) (MV-4-11 cells): highly active

Molecule: Synagis N297A: non-binding control antibody
CD79b binding on Ramos cells by flow cytometry (in words) (CD79b [2]): relatively negligible signal intensity

EC50 (CD79b [3]): 0.74 nM
B1: CD79b-A antibody (antibody, V domains shown)
VH: EVQLVESGGGLVQPGGSLRLSCAASGYTFSSYWIEWVRQAPGKGLEWIGEILPGGGDTNYNEIFKGRATFSADTSKNTAYLQMNSLRAEDTAVYYCTRRVPIRLDYWGQGTLVTVSS
VL: DIQLTQSPSSLSASVGDRVTITCKASQSVDYEGDSFLNWYQQKPGKAPKLLIYAASNLESGVPSRFSGSGSGTDFTLTISSLQPEDFATYYCQQSNEDPLTFGQGTKVEIK
notes: also called Polatuzumab
